Results from PubChem BioAssay (NCI).
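Briefly, cells in 96-well plates were exposed to five compound concentrations for 48 h, and endpoints were estimated by linear interpolation. GI50 marks 50% less growth. TGI: total growth inhibition.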

Experiments:
Assay in all cases: DTP human tumour cell line panel, 48 h
786-0 renal = system: 786-0 renal
HCC-2998 colon = system: HCC-2998 colon
HCT-116 colon = system: HCT-116 colon
HCT-15 colon = system: HCT-15 colon
HL-60(TB) leukemia = system: HL-60(TB) leukemia
SF-268 CNS = system: SF-268 CNS
SF-539 CNS = system: SF-539 CNS
SK-MEL-5 melanoma = system: SK-MEL-5 melanoma
SK-OV-3 ovarian = system: SK-OV-3 ovarian
UO-31 renal = system: UO-31 renal

Row | Structure (SMILES) | GI50 (786-0 renal) [µM] | TGI (786-0 renal) [µM] | GI50 (HCC-2998 colon) [µM] | TGI (HCC-2998 colon) [µM] | GI50 (HCT-116 colon) [µM] | TGI (HCT-116 colon) [µM] | GI50 (HCT-15 colon) [µM] | TGI (HCT-15 colon) [µM] | GI50 (HL-60(TB) leukemia) [µM] | TGI (HL-60(TB) leukemia) [µM] | GI50 (SF-268 CNS) [µM] | TGI (SF-268 CNS) [µM] | GI50 (SF-539 CNS) [µM] | TGI (SF-539 CNS) [µM] | GI50 (SK-MEL-5 melanoma) [µM] | TGI (SK-MEL-5 melanoma) [µM] | GI50 (SK-OV-3 ovarian) [µM] | TGI (SK-OV-3 ovarian) [µM] | GI50 (UO-31 renal) [µM] | TGI (UO-31 renal) [µM]
1 | COc1cc[nH]c1/C=C1\C(=O)Nc2ccccc21 | 15.9 | > 25 | > 20.7 | > 25 | 5.66 | > 25 | 4.85 | > 25 | 6.58 | > 25 | 11.2 | > 25 | 7.02 | > 25 | 10.9 | > 25 | 8.14 | > 25 | 1.69 | 24.6
2 | COc1ccc(-c2cn3ccsc3n2)cc1 |  | > 100 |  | > 100 |  | > 100 |  | > 100 |  | 85.7 |  | > 100 |  | > 100 |  | > 100 |  | > 100 |  | > 100
3 | COc1ccc(C(=O)c2cc(C)c(OC)c(C)c2)c(OC)c1N(C(=O)C(Cl)Cl)C(=O)C(Cl)Cl | 0.0455 | > 100 | 0.0799 | > 41.2 | 0.0772 | > 58.8 | 0.0617 | > 100 | 0.0306 | 0.0956 | 1.01 | > 100 | 0.0343 | 0.206 | 0.0509 | 2.14 | 0.052 | > 100 | 0.0736 | > 47.5
4 | COc1ccc(OC)c(/C=C/C(=O)N/N=C/c2ccc(Cl)cc2)c1 | 0.143 | > 100 | 0.0831 | 0.653 | 0.0571 |  | 0.0736 | > 100 | 0.0785 | 0.483 | 0.235 | > 100 | 0.157 | 11.1 | 0.0363 | 12.6 | 0.0928 | 9.81 | 3.37 | > 100
5 | CCc1[nH]c(=O)nc(N)c1-c1ccc(N2CCCCC2)c([N+](=O)[O-])c1 |  | > 100 |  | > 100 |  | > 100 |  | > 100 |  | > 100 |  | > 100 |  | > 100 |  | > 100 |  | > 100 |  | > 100
6 | CC(=O)[CH-]C(=O)c1ccccc1.CC(=O)[CH-]C(=O)c1ccccc1.O=C([O-])c1ccc([O-])cc1.O=C([O-])c1ccc([O-])cc1.[Ti+4] | 54.4 | > 100 | 46.3 | > 100 | 41.4 | > 100 | 56.6 | > 100 | 20.5 | 67.6 | 25 | > 100 | 40.2 | > 100 | 43.9 | > 100 | > 100 | > 100 | 23.1 | 76.4
7 | CN/N=C(/CCN1CCCC1)CC(c1ccccc1)c1c(O)c2ccccc2oc1=O (centres undefined) |  | > 100 |  | > 100 |  | > 100 |  | > 100 |  | > 100 |  | > 100 |  | > 100 |  | > 100 |  | > 100 |  | > 100
8 | O=C(N/N=C/c1cccc(O)c1O)c1ccccc1 | 1.48 | > 100 | 3.2 | > 100 | 0.388 | > 100 | 0.466 | > 100 | 0.301 | 1.94 | 0.567 | > 100 | 0.642 | 15.3 | 0.626 | > 22.7 | 3.68 | > 100 | 0.434 | 14
9 | O=C(c1cccc(O)c1O)c1cn(Cc2ccc(F)cc2)c2cccc(O)c12 | 7.46 | 20.8 | 1.55 | 11.4 | 3.28 | 17.1 | 1.16 | 14.8 | 1.36 | 6.93 | 3.51 | 16.2 | 2.49 | 11.2 | 1.73 | 4.97 | 4.49 | 16 | 1.14 | 5.24
10 | CC1CN1CC(O)C(O)CN1CC1C (centres undefined) | 0.831 | > 41.2 | 6.21 | 23.4 | 2.29 | > 100 | 4 | 46 | 0.305 | 20.1 | 0.716 | > 53.5 | 1.84 | 45.4 | 3.3 | 14.8 | 6.11 | > 100 | 0.932 | 10.9
11 | CCS(=O)(=O)c1ccc(OC)c(Nc2ncc(-c3cccc(OC)c3)o2)c1 | 9.57 | > 25 | 23 | > 25 | 8.1 | > 25 | 10.6 | > 25 | 16.4 | > 25 | 8.84 | > 25 | 6.96 | > 25 | 10 | > 25 | 9.92 | > 25 | 3.4 | 13.8
12 | Cc1ccc(S(=O)(=O)n2c(-c3ccccc3)c(-c3ccccc3)c3ccccc32)cc1 |  | > 100 |  | > 100 |  | > 100 |  | > 100 |  | > 100 |  | > 100 |  | > 100 |  | > 100 |  | > 100 |  | > 100
13 | COc1cc(C2=NN(C(C)=O)C(c3ccc(OC(C)=O)cc3OC(C)=O)O2)c(OC(C)=O)c2ccccc12 (centres undefined) | 0.902 | 12.7 | 1.03 | 27.9 | 0.346 | 12.2 | 0.581 | 25.6 | 0.671 | 2.94 | 0.465 | > 24.4 | 0.697 | 3.48 | 0.984 | 7.54 | 0.649 | 19.7 | 0.38 | 7.12
14 | Cc1cccc(NC(=O)C(=O)Cc2nc3ccccc3[nH]c2=O)c1C |  | > 100 |  | > 100 |  | > 100 |  | > 100 |  | > 100 |  | > 100 |  | > 100 |  | > 100 |  | > 100 |  | > 100
